Test results taken from patent US6852863B2, “Metabolites of (3-{[4-tert-butyl-benzyl)-(pyridine-3-sulfonyl)-amino]-methyl}-phenoxy)-acetic acid” (Pfizer Inc., priority 2002, dated 2005).

Legend:
Assay type in all cases: in vitro ADME
Conditions in all cases: 20 μM 14C-parent, NADPH, 30 minutes, 37° C.; HPLC radiochromatogram peak
[1] = Metabolism of 14C-parent in rat liver microsomes
Experimental: (§1) Human (HL-mix 12), rat, monkey and dog liver microsomes were prepared by differential centrifugation using standard procedures. Prior to use, liver microsomes were thawed on ice and reconstituted using 100 mM potassium phosphate pH 7.4. [^14C]-(3-{[4-tert-butyl-benzyl)-(pyridine-3-sulfonyl)-amino]-methyl}-phenoxy)-acetic acid was dissolved 100 mM potassium phosphate pH 7.4 at a final substrate concentration of 20 μM. Samples were pre-incubated for 3 min with microsomes (CYP 450; 0.5 μM) at 37° C. in a shaking water bath. Incubations were initiated with the addition of 100 μl cofactor (1.1 mM NADPH, 10 mM MgCl2) per 1 ml of incubation mixture. Incubations were stopped after 30 minutes by the addition of an equal volume of cold acetonitrile.
(§2) Metabolite quantification was performed by measuring the areas of individually separated HPLC peaks using the β-RAM (IN/US, Win-flow). […]
(§3) Identification of the metabolites was performed using a Finnigan TSQ 7000 triple quadrupole mass spectrometer equipped with an API-2 electrospray interface. […] The β-RAM response was recorded as a real time analog signal by the MS data collection system. The collected data from the radioactivity and MS detectors were separated by the dwell volume of flow from the MS to the radioactivity detector (corresponding to a dwell time of about 0.2 min.). […]

[2] = Metabolism of 14C-parent in human liver microsomes
Experimental: as §1, §2, §3

[3] = Metabolism of 14C-parent in monkey liver microsomes
Experimental: as §1, §2, §3

[4] = Metabolism of 14C-parent in dog liver microsomes
Experimental: as §1, §2, §3

CC(C)(CO)c1ccc(CN(Cc2cccc(OCC(=O)O)c2)S(=O)(=O)c2cccnc2)cc1 [Metabolite M4, (3-{[[4-(2-hydroxy-1,1-dimethyl-ethyl)-benzyl]-(pyridine-3-sulfonyl)-amino]-methyl}-phenoxy)-acetic acid]
Percent of Radioactivity, Rat liver microsomes [1]: 4.38%
Percent of Radioactivity, Human liver microsomes [2]: 26.5%
Percent of Radioactivity, Monkey liver microsomes [3]: 47.3%
Percent of Radioactivity, Dog liver microsomes [4]: 11.5%
